Measured values from patent US5773423A (priority 1994, dated 1998).
Like-named read-outs stand apart in the source and are kept apart here.

Assays:
[1] = biological target: T1, A1 receptors from rat brain membranes (Rattus norvegicus, UniProt P25099); experiment: biochemical; type: binding; settings: for Ki: rat brain membranes
T1 construct: Rat cerebral cortical and striatal membranes were prepared; from tissue; host or cells: rat brain (cerebral cortical) membranes
T1 sequence (P25099 1-326): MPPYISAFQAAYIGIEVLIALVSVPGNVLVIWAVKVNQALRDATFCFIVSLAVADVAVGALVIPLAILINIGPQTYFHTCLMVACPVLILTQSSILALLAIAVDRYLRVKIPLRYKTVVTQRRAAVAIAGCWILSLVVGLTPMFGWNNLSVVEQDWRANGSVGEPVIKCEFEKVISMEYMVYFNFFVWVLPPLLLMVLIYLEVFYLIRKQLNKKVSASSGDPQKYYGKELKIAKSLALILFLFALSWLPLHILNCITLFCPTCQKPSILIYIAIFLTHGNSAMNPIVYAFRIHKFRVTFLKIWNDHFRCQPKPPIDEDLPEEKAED

[2] = test system: locomotor activity in mice; experiment: Locomotor activity in mice (open field, Digiscan activity monitor); type: in vivo, mouse (NIH Swiss)
[3] = biological target: T2, A2 receptors from rat striatal membranes (Rattus norvegicus, UniProt P30543); experiment: Radioligand binding at A2 (A2a) receptors, displacement of [3H]CGS 21680 (or [3H]NECA with 50 nM CPA) from rat striatal membranes
T2 construct: Rat cerebral cortical and striatal membranes were prepared; from tissue; host or cells: rat striatal membranes

[4] = test system: cardiovascular parameters in rats; type: in vivo, rat
Description: Rats (each weighing 300-340 g) were lightly anesthetized using 1.5-2% halothane. They were monitored for heart rate with a tail sensor and blood pressure using the tail cuff method. Peripheral blood flow (scalp) was monitored using a Perimed laser Doppler blood flow apparatus, with a narrow diameter probe placed in contact with the shaved skin above the center of the cranium. A small amount of clear gel was applied to maintain uniform transmission of light. Body temperature was measured using a rectal probe. Respiratory rate was also recorded. Measurements were made at regular intervals: every 2 min for the first ten min period, and every five min thereafter, until 30 min, at which time a 30 min interval was used, until 90 min. […] Drugs were dissolved in a vehicle consisting of an 80:20 mixture of Alkamuls EL-620 and saline, pH 7.4. […] When administered alone, the agonist was given at the beginning of the monitoring period. When coadministered with an antagonist, the antagonist was given at the beginning of the monitoring period, and the agonist was given after 10 min.

[5] = biological target: T1, A1 receptors from rat brain membranes
[6] = biological target: T2, A2 receptors from rat striatal membranes
[7] = test system: NMDA-evoked seizures in mice; type: in vivo
[8] = test system: pentamethylenetetrazole-induced convulsions in mice; type: in vivo; settings: PMT 75 mg/kg alone
[9] = Table 2, [3H]PIA, read-out: Ki (A1)
[10] = Table 2, [3H]CGS 21680, rat striatal membranes, read-out: Ki (A2)
[11] = 4 mg/kg alone, 10-30 min post-injection
[12] = 0.1 mg/kg i.p., from initial value
[13] = values without SEM, taken from the literature; read-out: A1 affinity Ki; cited from earlier work
[14] = rat striatal membranes, displacement of [3H]CGS 21680 (or [3H]NECA + 50 nM CPA), read-out: A2 affinity Ki
[15] = values without SEM, taken from the literature; read-out: A2 affinity Ki; cited from earlier work
[16] = displacement of [3H]PIA (or [3H]CHA), read-out: A1 affinity Ki
[17] = read-out: A1 affinity Ki; values without SEM, taken from the literature; cited from earlier work
[18] = read-out: A2 percent displacement
[19] = Table 4, [3H]PIA, read-out: Ki (A1)
[20] = Table 4, [3H]CGS 21680, rat striatal membranes, read-out: Ki (A2)

T2 sequence (P30543 whole entry): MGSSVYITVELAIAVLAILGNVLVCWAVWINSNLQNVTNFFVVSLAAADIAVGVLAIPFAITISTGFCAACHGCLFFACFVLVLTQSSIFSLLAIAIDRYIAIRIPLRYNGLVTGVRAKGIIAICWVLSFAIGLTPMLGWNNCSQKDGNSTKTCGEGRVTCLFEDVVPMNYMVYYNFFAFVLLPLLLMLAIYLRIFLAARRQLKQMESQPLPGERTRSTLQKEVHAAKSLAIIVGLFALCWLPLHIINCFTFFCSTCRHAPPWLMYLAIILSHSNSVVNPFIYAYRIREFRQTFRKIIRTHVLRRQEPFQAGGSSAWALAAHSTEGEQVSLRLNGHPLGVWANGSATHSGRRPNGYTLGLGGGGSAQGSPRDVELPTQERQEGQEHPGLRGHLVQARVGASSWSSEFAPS

Structure (SMILES): CCNC(=O)[C@H]1O[C@@H](n2cnc3c(N)nc(NCCc4ccc(CCC(=O)NCCN)cc4)nc32)[C@H](O)[C@@H]1O [APEC, reference compound]
- Ki [1, 9]: 0.4 µM
- reduction in locomotor activity at chosen dose ([2]; APEC 16 μg/kg, 3-IB-MECA 100 μg/kg i.p.): ca. 50%
- Ki [3, 10]: 0.0057 µM

Structure (SMILES): CCCn1c(=O)c2[nH]c(-c3ccc(C=CC(=O)O)cc3)nc2n(CCC)c1=O [BW1433, 1,3-dipropyl-8-(4-carboxyvinylphenyl)xanthine, reference compound]
- blood flow and respiratory rates (in words) ([4]; 4 mg/kg alone): Blood flow and respiratory rates were increased
- rise in blood pressure [4, 11]: > 40 % of initial values
- rise in heart rate [4, 11]: > 40 % of initial values
- body temperature (in words) ([4]; rat, in vivo, 4 mg/kg): no major changes

Structure (SMILES): OC[C@H]1O[C@@H](n2cnc3c(NC4CCCC4)ncnc32)[C@H](O)[C@@H]1O [Compound 4, N^6 -cyclopentyladenosine, reference compound]
- ED50 ([2]; Mus musculus, ip, read-out: ED50 for locomotor depression): 0.1 mg/kg
- duration of bradycardiac effect ([4]; 0.1 mg/kg i.p., entire monitoring period): 90 min
- drop in blood pressure [4, 12]: 50%
- drop in heart rate [4, 12]: 20%
- time at which hypotensive effect begins to wane ([4]; 0.1 mg/kg i.p., post-injection): approximately 20 min

Structure (SMILES): CN(C)c1ncnc2c1ncn2[C@@H]1O[C@H](CO)[C@@H](O)[C@H]1O [Compound 9, N^6 -dimethyladenosine, reference compound]
- Ki [5, 13]: 10 µM
- Ki [3, 14]: 28.9 µM

Structure (SMILES): COc1cc(OC)cc(C(CNc2ncnc3c2ncn3[C@@H]2O[C@H](CO)[C@@H](O)[C@H]2O)c2ccccc2C)c1 (stereo partly shown) [Compound 10, N^6-[2-(3,5-dimethoxyphenyl)-2-(2-methylphenyl)ethyl]adenosine]
- Ki ([6]; read-out: A2 affinity Ki; cited from earlier work): 0.0044 µM

Structure (SMILES): O=S(=O)(O)CCNc1ncnc2c1ncn2[C@@H]1O[C@H](CO)[C@@H](O)[C@H]1O [Compound 11, N^6-(2-sulfo)ethyladenosine]
- A1 percent displacement ([5]; at 100 μM, value without SEM, from the literature; cited from earlier work): 41%

Structure (SMILES): OC[C@H]1O[C@@H](n2cnc3c(NC4CCCC4)cc(Cl)nc32)[C@H](O)[C@@H]1O [Compound 15, 1-deaza-2-chloro-N^6-cyclopentyladenosine]
- Ki [6, 15]: 13.2 µM

Structure (SMILES): NC(=O)[C@H]1O[C@@H](n2cnc3c(N)ncnc32)[C@H](O)[C@@H]1O [Compound 20, 5'-carboxamidoadenosine]
- Ki [6, 15]: 0.12 µM
- Ki [5, 13]: 0.0726 µM

Structure (SMILES): CCNC(=O)[C@H]1O[C@@H](n2cnc3c(NC4CCCCC4)ncnc32)[C@H](O)[C@@H]1O [Compound 27, N^6 -cyclohexylNECA]
- Ki [6, 15]: 0.17 µM
- Ki ([5]; read-out: A1 affinity Ki; cited from earlier work): 0.00043 µM

Structure (SMILES): CCNC(=O)[C@H]1O[C@@H](n2cnc3c(NCc4ccccc4)ncnc32)[C@H](O)[C@@H]1O [Compound 28, N^6-benzyladenosine-5'-N-ethyluronamide]
- Ki [6, 15]: 0.095 µM
- Ki [1, 16]: 0.0873 ± 0.0139 µM
- Ki [3, 14]: 0.0953 ± 0.0246 µM

Structure (SMILES): CCNC(=O)[C@H]1O[C@@H](n2cnc3c(N(C)C)ncnc32)[C@H](O)[C@@H]1O [Compound 29, N^6 -dimethylNECA, reference compound]
- Ki [5, 13]: 9.6 µM
- Ki [3, 14]: 13.5 µM

Structure (SMILES): Nc1ncnc2c1ccn2[C@@H]1O[C@H](CO)[C@@H](O)[C@H]1O [Compound 33, 7-deazaadenosine, reference compound]
- Ki [5, 17]: > 0.1 µM
- A2 percent displacement ([3]; striatal membranes, 100 µM): 48.3 ± 0.4%

Structure (SMILES): Nc1[nH]c2ccccc2c2ncnc1-2 [Compound 94, imidazo[4,5-c]quinolin-4-amine]
- Ki [6, 15]: 1.4 µM

Structure (SMILES): N=C(N)NC(=O)c1nc(Cl)c(N)nc1N [Compound 97, amiloride]
- Ki ([6]; read-out: A2 affinity Ki; values without SEM, taken from the literature; cited from earlier work): 17 µM
- Ki [5, 17]: 11 µM

Structure (SMILES): O=c1[nH]c(=O)c2[nH]cnc2[nH]1 [Compound 98, xanthine, reference compound]
- Ki [5, 13]: 298 µM
- inhibition at 100 µM [3, 18]: 16.2 ± 2.6%

Structure (SMILES): Cn1c(=O)[nH]c2nc[nH]c2c1=O [Compound 99, 1-methylX]
- Ki [6, 15]: 36.2 µM
- Ki [5, 13]: 11.4 µM

Structure (SMILES): Cn1c(=O)[nH]c2ncn(C)c2c1=O [Compound 104, 1,7-dimethylX, reference compound]
- Ki [5, 13]: 30 µM
- Ki [3, 14]: 19.4 µM

Structure (SMILES): Cn1cnc2c1c(=O)[nH]c(=O)n2C [Compound 106, 3,7-dimethylX]
- Ki [6, 15]: 187 µM
- Ki [5, 13]: 83.4 µM

Structure (SMILES): CC(C)Cn1c(=O)n(C)c(=O)c2[nH]cnc21 [Compound 108, 3-isobutyl-1-methylxanthine]
- Ki [6, 15]: 16 µM

Structure (SMILES): CCCCn1c(=O)n(Cc2ccccc2)c(=O)c2c1ncn2[C@@H]1O[C@H](CO)[C@@H](O)[C@H]1O [Compound 120, 1-benzyl-3-butylxanthine-7-β-D-ribofuranoside]
- potency increase at A1 and A2a receptors vs 1,3-di-n-butylxanthine-7-β-D-ribofuranoside [1]: 2-4 fold
- Ki [1, 19]: 2.19 µM
- Ki [3, 20]: 8.67 µM
- Ki [3, 14]: 3.8 µM

Structure (SMILES): CCCCn1c(=O)c2c(ncn2[C@@H]2O[C@H](CO)[C@@H](O)[C@H]2O)n(Cc2ccccc2)c1=O [Compound 121, 3-benzyl-1-butylxanthine-7-β-D-ribofuranoside]
- potency increase at A1 and A2a receptors vs 1,3-di-n-butylxanthine-7-β-D-ribofuranoside ([1]; A1 and A2a receptors): 2-4 fold
- Ki [1, 19]: 1.72 ± 0.03 µM
- Ki [3, 20]: 4.51 µM
- Ki [3, 14]: 4.51 µM

Structure (SMILES): CCCCn1c(=O)c2c(ncn2[C@@H]2O[C@H](C(=O)OC)[C@@H](O)[C@H]2O)n(CCCC)c1=O [Compound 122, methyl 1,3-di-n-butylxanthine-7-β-D-ribofuronate]
- Ki [1, 19]: 3.72 µM
- inhibition at 3 µM ([3]; read-out: percent displacement of radioligand at A2): 0%

Structure (SMILES): CCCCn1c(=O)c2c(ncn2[C@@H]2O[C@H](C(N)=O)[C@@H](O)[C@H]2O)n(CCCC)c1=O [Compound 123, 1,3-di-n-butylxanthine-7-β-D-ribofuronamide]
- Ki [1, 16]: 2.94 µM
- Ki [3, 14]: 59.2 µM

Structure (SMILES): CCCCn1c(=O)c2c(ncn2[C@@H]2O[C@H](C(=O)NCC)[C@@H](O)[C@H]2O)n(CCCC)c1=O [Compound 126, N-ethyl 1,3-di-n-butylxanthine-7-β-D-ribofuronamide]
- Ki [1, 16]: 7.5 µM
- Ki [3, 14]: 17 µM

Structure (SMILES): CCCn1c(=O)[nH]c2nc(C3CCCC3)[nH]c2c1=O [Compound 129, 8-cyclopentyl-1-propylX, reference compound]
- Ki [1, 16]: 0.226 ± 0.037 µM
- Ki [3, 14]: 48.7 µM

Structure (SMILES): Cn1c(=O)c2[nH]c(Cl)nc2n(C)c1=O [Compound 132, 8-chloroT, reference compound]
- inhibition at 100 µM ([1]; at 100 μM, read-out: A1 percent displacement): 30.2 ± 6.7%
- inhibition at 100 µM [3, 18]: 24.7 ± 3.9%

Structure (SMILES): CCCn1c(=O)c2[nH]c(-c3ccc(S(=O)(=O)O)cc3)nc2n(CCC)c1=O [Compound 135, 8-sulfophenyl-1,3-dipropylX]
- Ki [6, 15]: 0.79 µM
- Ki [5, 13]: 0.14 µM

Structure (SMILES): Nc1nc(NCc2cccc(I)c2)c2ncn([C@@H]3O[C@H](CO)[C@@H](O)[C@H]3O)c2n1 [Example 43, 2-amino-N^6-(3-iodobenzyl)-9-[β-D-ribofuranosyl]-adenine]
- factor less potent than N6-(3-iodobenzyl)-adenosine at A1 receptors [1]: 3.2 factor
- Ki [1, 9]: 0.0638 ± 0.0151 µM
- factor less potent than N6-(3-iodobenzyl)-adenosine at A2a receptors [3]: 6.7 factor
- Ki [3, 10]: 0.117 ± 0.015 µM

Structure (SMILES): CNC(=O)[C@H]1O[C@@H](n2cnc3c(NCc4cccc(I)c4)nc(NC)nc32)[C@H](O)[C@@H]1O [Example 45, N^6-(3-iodobenzyl)-2-methylamino-9-[5-(methylamido)-β-D-ribofuranosyl]-adenine]
- Ki [1, 9]: 4.89 ± 2.58 µM
- Ki [3, 10]: 4.12 ± 0.21 µM

Structure (SMILES): COc1nc2c(c(=O)n(C)c(=O)n2C)n1[C@@H]1O[C@H](CO)[C@@H](O)[C@H]1O [Example 59, 8-methoxytheophylline-7-β-D-ribofuranoside]
- inhibition at 100 µM ([1]; Table 4, at 10^-4 M, read-out: percent displacement of radioligand at A1): 21 ± 3%
- inhibition at 100 µM ([3]; Table 4, at 10^-4 M, read-out: percent displacement of radioligand at A2): 4%

Structure (SMILES): CN[C@H](CC(=O)O)C(=O)O [NMDA, N-methyl-D-aspartate, reference compound]
- % Mortality at 24 h ([7]; NMDA 60 mg/kg alone): 60%
- Ave. Latency to Seizures ([7]; NMDA 60 mg/kg alone): 244 + 90 sec
- % Convulsing ([7]; NMDA 60 mg/kg alone (control), within 15 min): 80%
- Impairment (neurological impairment scale 1-6) ([7]; NMDA 60 mg/kg alone, 1 no change ... 6 clonic/tonic complexes): 3.5 ± 0.5

Structure (SMILES): C1CCc2nnnn2CC1 [PMT, pentamethylenetetrazole, reference compound]
- Mortality 0.4-5 h [8]: 0%
- Mortality <15 min [8]: 100%
- Mortality >5 h [8]: 0%
- Mortality Overall [8]: 100%
- Onset of convulsive behavior [8]: 74 s

Structure (SMILES): CN1CCC(=C2c3ccccc3C=Cc3ccccc32)CC1 [cyproheptadine, reference compound]
- effect on 3-IB-MECA-induced scratching (in words) ([2]; 1 mg/kg): only partial
- effect on 3-IB-MECA-induced scratching (in words) ([2]; 10 mg/kg i.p.): eliminated this behavior
